System: Rat aortic vascular smooth muscle cells
Settings: positive control (FIG. 22)
Procedure: Cells were seeded at 10,000 cells/cm^2. At 70% confluency, cells were incubated with nanoparticles for 4 hours following which cell viability was determined using a LIVE/DEAD Cell Viability assay (Molecular Probes, Grand Island, N.Y.). Cells fluorescing green were considered alive while cells fluorescing red were considered dead. Additionally, proliferation of cells was estimated using the MTT (3-(4,5-Dimethyl-2-thiazolyl)-2,5-diphenyl-2H-tetrazolium bromide) assay. Briefly, 5 mg of MTT (Sigma Aldrich, St. Louis, Mo.) was dissolved in 10 ml of serum-free media and added to cells. After 4 hours, media was carefully aspirated and the insoluble formazan dye was collected with dimethyl sulfoxide (DMSO) (Sigma Aldrich, St, Louis, Mo.). Absorbance was read at 560 nm and normalized to control (no treatment) readings.

Question: How did the Cell death turn out when `CCO` [70% ethanol, ethanol] was run?
Answer: > 95%

From patent US10688061B2, “Formation of delivery agents targeted to degraded elastic fibers” (priority 2012, dated 2020)
